Read-outs that look alike come from different tables or passages of the source.
Target: T1, Androgen Receptor (Homo sapiens, UniProt P10275)
T1 construct: endogenous in cells; host or cells: VCaP cells
T1 sequence (P10275 1-920): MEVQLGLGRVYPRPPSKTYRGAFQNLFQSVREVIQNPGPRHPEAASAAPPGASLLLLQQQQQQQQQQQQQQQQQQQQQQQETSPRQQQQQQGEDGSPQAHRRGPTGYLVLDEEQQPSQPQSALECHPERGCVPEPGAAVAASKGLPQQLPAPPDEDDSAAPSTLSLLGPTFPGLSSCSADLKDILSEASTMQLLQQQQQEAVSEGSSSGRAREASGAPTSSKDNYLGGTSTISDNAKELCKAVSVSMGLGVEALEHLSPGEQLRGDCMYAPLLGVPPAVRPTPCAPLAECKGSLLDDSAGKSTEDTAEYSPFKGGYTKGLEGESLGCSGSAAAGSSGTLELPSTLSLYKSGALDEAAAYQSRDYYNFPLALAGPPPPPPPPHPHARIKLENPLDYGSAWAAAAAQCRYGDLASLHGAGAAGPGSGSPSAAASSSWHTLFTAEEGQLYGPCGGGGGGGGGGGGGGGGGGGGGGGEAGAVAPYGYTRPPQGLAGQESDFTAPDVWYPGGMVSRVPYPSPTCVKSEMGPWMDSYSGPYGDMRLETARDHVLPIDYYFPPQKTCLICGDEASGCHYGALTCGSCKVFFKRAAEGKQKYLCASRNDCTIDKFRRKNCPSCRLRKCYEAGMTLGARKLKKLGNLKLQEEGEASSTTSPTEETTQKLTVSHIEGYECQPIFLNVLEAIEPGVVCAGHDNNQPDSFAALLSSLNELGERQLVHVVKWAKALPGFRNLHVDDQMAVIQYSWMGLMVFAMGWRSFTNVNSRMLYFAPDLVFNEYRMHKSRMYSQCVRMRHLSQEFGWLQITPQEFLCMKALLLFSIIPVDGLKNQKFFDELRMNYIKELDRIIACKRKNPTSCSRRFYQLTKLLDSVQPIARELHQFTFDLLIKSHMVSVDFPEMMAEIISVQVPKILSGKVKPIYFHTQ
Experiment: Androgen Receptor ELISA assay (PathScan AR ELISA) in VCaP cells: AR degradation, Dmax and DC50
Type: cell-based
How it was run: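 VCaP cells, 30,000/well, grown ≥3 days in phenol red-free RPMI with 5% charcoal-stripped FBS; compound added in 0.1% DMSO with 0.1 nM R1881, 7 half-log doses, 24 h. Lysate AR quantified by PathScan sandwich ELISA, HRP/TMB read at 450 nm, giving DC50 and Dmax.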

[1] = VCaP cells; Table 36; read-out: VCaP DC50
[2] = VCaP, VCaP cells; Table 36; read-out: VCaP Dmax (%)
[3] = read-out: VCaP DC50; VCaP cells; Table 36
[4] = VCaP cells; Table 35; read-out: VCaP DC50
[5] = VCaP, VCaP cells; Table 35; read-out: VCaP Dmax (%)

Row | DC50 [1] [nM] | Dmax [2] [%] | SMILES | other results
1 | > 501 | < 25 | CC(C)(C)[C@H](NC(=O)COCCN1CCN(c2ccc(C(=O)N[C@H]3C(C)(C)[C@H](Oc4ccc(C#N)c(Cl)c4)C3(C)C)cn2)CC1)C(=O)N1C[C@H](O)C[C@H]1C(=O)NCc1ccc(C2CCC2)cc1 [Example 758, N-((1r,3r)-3-(3-chloro-4-cyanophenoxy)-2,2,4,4-tetramethylcyclobutyl)-6-(4-(2-(2-(((S)-1-((2S,4R)-2-((4-cyclobutylbenzyl)carbam-oyl)-4-hydroxypyrrolidin-1-yl)-3,3-dimethyl-1-oxobutan-2-yl)amino)-2-oxoethoxy)ethyl)pipera-zin-1-yl)nicotinamide] | –
2 | > 501 | < 25 | Cc1ncsc1-c1ccc([C@H](C)NC(=O)[C@@H]2C[C@@H](O)CN2C(=O)[C@H](C(C)C)n2cc(-c3ccnc(OC4CN(c5ccc(C(=O)N[C@H]6C(C)(C)[C@H](Oc7ccc(C#N)c(Cl)c7)C6(C)C)cn5)C4)c3)cn2)cc1 [Example 594, N-((1r,3r)-3-(3-chloro-4-cyanophenoxy)-2,2,,4-tetramethylcyclobutyl)-6-(3-((4-(1-((S)-1-((2S,4R)-4-hydroxy-2-(((S)-1-(4-(4-methylthiazol-5-yl)phenyl)ethyl)carbam-oyl)pyrrolidin-1-yl)-3-methyl-1-oxobutan-2-yl)-1H-pyrazol-4-yl)pyridin-2-yl)oxy)azetidin-1-yl)nicotinamide] | –
3 | > 501 | < 25 | CC(C)(C)c1ccc(CNC(=O)[C@@H]2C[C@@H](O)CN2C(=O)[C@@H](NC(=O)COCCN2CCN(c3ccc(C(=O)N[C@H]4C(C)(C)[C@H](Oc5ccc(C#N)c(Cl)c5)C4(C)C)cn3)CC2)C(C)(C)C)cc1 [Example 776, 6-(4-(2-(2-(((S)-1-((2S,4R)-2-((4-(tert-butyl)benzyl)carbamoyl)-4-hydroxypyrrolidin-1-yl)-3,3-dimethyl-1-oxobutan-2-yl)amino)-2-oxoethoxy)ethyl)piperazin-1-yl)-N-((1r,3r)-3-(3-chloro-4-cyanophenoxy)-2,2,4,4-tetramethylcyclobutyl) nicotinamide] | –
4 | > 501 | < 25 | C[C@H](NC(=O)[C@@H]1C[C@@H](O)CN1C(=O)[C@@H](NC(=O)CN1CCN(CCCc2ccc(C(=O)N[C@H]3C(C)(C)[C@H](Oc4ccc(C#N)c(Cl)c4)C3(C)C)cc2)CC1)C(C)(C)C)c1ccc(Cl)cc1 [Example 739, (2S,4R)-1-((S)-2-(2-(4-(3-(4-(((1r,3r)-3-(3-chloro-4-cyanophenoxy)-2,2,4,4-tetramethylcyclobutyl)carbamoyl)phenyl)propyl)piperazin-1-yl)acetamido)-3,3-dimethylbutanoyl)-N-((S)-1-(4-chlorophenyl)ethyl)-4-hydroxypyrrolidine-2-carboxamide] | –

Continued, compound first:

Row | SMILES | DC50 [1] [nM] | Dmax [2] [%] | other results
5 | CC(C)[C@H](OCCN1CCN(c2ccc(C(=O)N[C@H]3C(C)(C)[C@H](Oc4ccc(C#N)c(Cl)c4)C3(C)C)cn2)CC1)C(=O)N[C@@H](C)C(=O)N1C[C@H](O)C[C@H]1C(=O)NCc1ccc(Cl)cc1 [Example 731, N-((1r,3r)-3-(3-chloro-4-cyanophenoxy)-2,2,4,4-tetramethylcyclobutyl)-6-(4-(2-(((S)-1-(((S)-1-((2S,4R)-2-((4-chlorobenzyl)carbamoyl)-4-hydroxypyrrolidin-1-yl)-1-oxopropan-2-yl)amino)-3-methyl-1-oxobutan-2-yl)oxy)ethyl)piperazin-1-yl)nicotinamide] | > 501 | < 25 | –
6 | Cc1ncsc1-c1ccc([C@H](C)NC(=O)[C@@H]2C[C@@H](O)CN2C(=O)[C@@H](C(C)C)n2cc(OCCCOCCCCCOc3ccc(N4C(=S)N(c5ccc(C#N)c(C(F)(F)F)c5)C(=O)C4(C)C)cc3)cn2)cc1 [Example 434] | – | – | DC50 (read-out: VCaP DC50; VCaP cells; Table 35): > 501 nM
7 | CC(C)[C@H](OCCN1CCN(c2ccc(C(=O)N[C@H]3C(C)(C)[C@H](Oc4ccc(C#N)c(Cl)c4)C3(C)C)cn2)CC1)C(=O)N[C@H](C(=O)N1C[C@H](O)C[C@H]1C(=O)NCc1ccc(Cl)cc1)C(C)(C)C [Example 742, N-((1r,3r)-3-(3-chloro-4-cyanophenoxy)-2,2,4,4-tetramethylcyclobutyl)-6-(4-(2-(((S)-1-(((S)-1-((2S,4R)-2-((4-chlorobenzyl)carbamoyl)-4-hydroxypyrrolidin-1-yl)-3,3-dimethyl-1-oxoutan-2-yl)amino)-3-methyl-1-oxobutan-2-yl)oxy)ethyl)piperazin-1-yl)nicotinamide] | > 501 | < 25 | –
8 | Cc1ncsc1-c1ccc([C@H](C)NC(=O)[C@@H]2CC3CN2C(=O)C(C(C)(C)C)NC(=O)COCCCOCCC(CCOc2ccc(N4C(=S)N(c5ccc(C#N)c(C(F)(F)F)c5)C(=O)C4(C)C)cc2)OC(=O)CC/C=C/CCC(=O)O3)cc1 (stereo partly drawn) [Example 619, (3S,25R,27S,E)-3-(tert-butyl)-14-(2-(4-(3-(4-cyano-3-(trifluoromethyl)phenyl)-5,5-dimethyl-4-oxo-2-thioxoimidazolidin-1-yl)phenoxy)ethyl)-N-((S)-1-(4-(4-methylthiazol-5-yl)phenyl)ethyl)-2,5,16,23-tetraoxo-7,11,15,24-tetraoxa-1,4-diazabicyclo[23.2.1]oct-acos-19-ene-27-carboxamide] | – | – | Dmax (VCaP, read-out: VCaP Dmax (%)): < 25%; DC50 [3]: > 501 nM
9 | CNCC(NC(=O)[C@@H]1C[C@@H](O)CN1C(=O)[C@@H](NC(=O)COCCCCCOc1ccc(C(=O)N[C@H]2C(C)(C)[C@H](Oc3ccc(C#N)c(Cl)c3)C2(C)C)cc1)C(C)(C)C)c1ccc(-c2scnc2C)cc1 (stereo partly drawn) [Example 508] | – | – | DC50 [4]: < 50 nM; Dmax [5]: > 71%
10 | COc1cc(C#N)ccc1CNC(=O)[C@@H]1C[C@@H](O)CN1C(=O)[C@@H](NC(=O)COCCCCCNc1ccc(C(=O)N[C@H]2C(C)(C)[C@H](Oc3ccc(C#N)c(Cl)c3)C2(C)C)cc1)C(C)(C)C [Example 510] | – | – | DC50 [4]: < 50 nM; Dmax [5]: 51 to 70%
11 | CNC(=O)[C@H]1CCCN1C(=O)C(NC(=O)COCCN1CCN(c2ccc(C(=O)N[C@H]3C(C)(C)[C@H](Oc4ccc(C#N)c(Cl)c4)C3(C)C)cn2)CC1)C(C)(C)C (stereo partly drawn) [Example 700, N-((1r,3r)-3-(3-chloro-4-cyanophenoxy)-2,2,4,4-tetramethylcyclobutyl)-6-(4-(2-(2-(((S)-3,3-dimethyl-1-((S)-2-(methylcarbamoyl)pyrroli-din-1-yl)-1-oxobutan-2-yl)amino)-2-oxoethoxy)ethyl)pipera-zin-1-yl)nicotinamide] | > 501 | < 25 | –
12 | Cc1ncsc1-c1ccc(CNC(=O)[C@@H]2C[C@@H](O)CN2C(=O)[C@@H](NC(=O)COCCCOCCCCNc2ccc(N3C(=S)N(c4ccc(C#N)c(C(F)(F)F)c4)C(=O)C3(C)C)cc2)C(C)(C)C)cc1 [Example 333] | – | – | Dmax (VCaP, read-out: VCaP Dmax (%)): 51 to 70%; DC50 (read-out: VCaP DC50; VCaP cells; Table 34): < 50 nM
13 | CC(C)(C)[C@H](NC(=O)COCCNc1ccc(-c2ccc(C(=O)N[C@H]3C(C)(C)[C@H](Oc4ccc(C#N)c(Cl)c4)C3(C)C)cc2)cc1)C(=O)N1C[C@H](O)C[C@H]1C(=O)NCc1ccc(C#N)cc1 [Example 524] | – | – | DC50 [4]: < 50 nM; Dmax [5]: 51 to 70%
14 | Cc1ncsc1-c1ccc([C@H](C)NC(=O)C2C[C@@H](O)CN2C(=O)[C@@H](NC(=O)c2cc3ccc(OC[C@H]4C[C@H](COc5ccc(N6C(=S)N(c7ccc(C#N)c(C(F)(F)F)c7)C(=O)C6(C)C)cc5)C4)cc3o2)C(C)(C)C)cc1 (stereo partly drawn) [Example 605, 1-(2-(6-((3-((4-(3-(4-cyano-3-(trifluoromethyl)phenyl)-5,5-dimethyl-4-oxo-2-thioxoimidazolidin-1-yl)phenoxy)methyl)cyclo-butyl)methoxy)benzo-furan-2-carboxamido)-3,3-dimethylbutanoyl)-4-hydroxy-N-(1-(4-(4-methylthiazol-5-yl)phenyl)ethyl)pyrroli-dine-2-carboxamide] | – | – | Dmax (VCaP, read-out: VCaP Dmax (%)): < 25%; DC50 [3]: > 501 nM

From patent US11427548B2 (Arvinas Operations, Inc., priority 2015, dated 2022)
